From publication PMC9698702, “Efficient Preparation of High-Purity Fucoxanthinol by SpyTag-Tailored Active Cholesterol Esterase Aggregates” (Marine Drugs, 2022) come the findings set out here.

The experiment deals with T1, free cholesterol esterase.
T1 construct: commercial Pseudomonas cholesterol esterase (Sigma-Aldrich), free
Kind of experiment: coupled cholesterol oxidase/peroxidase assay at […] nm, Lineweaver-Burk. The note with it: free enzyme; taurocholate, pH 7.0, 37 °C; substrate of the kinetic run not named, taken from the activity assay. The experiment is classed as biochemical.

In general, Km refers to the concentration of substrate that gives half-maximal velocity. `CCCCCCCC/C=C\CCCCCCCC(=O)O[C@H]1CC[C@@]2(C)C(=CC[C@H]3[C@@H]4CC[C@H]([C@H](C)CCCC(C)C)[C@@]4(C)CC[C@@H]32)C1` [cholesteryl oleate]: the Km was found to be 48.8 µM.
